Measurements: patent US7906541B2, “Process to prepare new substituted 1H-benzo[d]imidazol-2(3H)-ones, new intermediates and their use as BACE 1 inhibitors” (Universite Paul Cezanne-Aix Marseille III, priority 2008, dated 2011)

melting point	Structure (SMILES)
66 °C (dec.)	CS/C=C(/C)n1c(=O)n(C)c2ccccc21 [Example 1, 1-methyl-3-[(1Z)-1-(methylsulfanyl)prop-1-en-2-yl]-1,3-dihydro-2H-benzimidazol-2-one]
227 °C (dec.)	CS/C=C(/C)n1c(=O)n(Cc2ccccc2)c2ccccc21 [Example 2, 1-benzyl-3-[(1Z)-1-(methylsulfanyl)prop-1-en-2-yl]-1,3-dihydro-2H-benzimidazol-2-one]
74 °C	CCn1c(=O)n(/C(C)=C\SC)c2ccccc21 [Example 5, 1-ethyl-3-[(1Z)-1-(methylsulfanyl)prop-1-en-2-yl]-1,3-dihydro-2H-benzimidazol-2-one]
148 °C	CS/C=C(/C)n1c(=O)n(Cc2cc(C(F)(F)F)cc(C(F)(F)F)c2)c2ccccc21 [Example 6, 1-[3,5-bis(trifluoromethyl)benzyl]-3-[(1Z)-1-(methylsulfanyl)prop-1-en-2-yl]-1,3-dihydro-2H-benzimidazol-2-one]
194 °C	CS/C=C(/C)n1c(=O)n(C)c2ccc(C(F)(F)F)cc21 [Example 9, 1-methyl-3-[(1Z)-1-(methylsulfanyl)prop-1-en-2-yl]-5-(trifluoromethyl)-1,3-dihydro-2H-benzimidazol-2-one]
110 °C	CS/C=C(/C)n1c(=O)n(C)c2cc(F)ccc21 [Example 10, 5-fluoro-3-methyl-1-[(1Z)-1-(methylsulfanyl)prop-1-en-2-yl]-1,3-dihydro-2H-benzimidazol-2-one]
194 °C	O=c1[nH]c2ccccc2n1Cc1ccccc1 [Example 11, 1-benzyl-1,3-dihydro-2H-benzimidazol-2-one]
